Data published in patent US20240041976A1, “COMPOSITION AND USE” (priority 2020, published 2024).
Like-named read-outs stand apart in the source and are kept apart here.

What was measured:
[1] = system: three MRSA strains (ATCC33591-lux, USA-300 and MRSA 43484); test: AAMP assay and checkerboard synergy, summary; assay type: cell-based, Staphylococcus aureus; conditions: for synergy with GarKS: checkerboard assay
Experimental: Briefly, equal amounts of antimicrobial A were applied on microtiter plate 1 in wells A1-H1 and then diluted two-fold to wells 2-12. Similarly, equal amounts of antimicrobial B were applied on microtiter plate 2 in wells A1-A12 and diluted two-fold in wells B-H. Volumes of 50 μl of antimicrobial A from each well of microtiter plate 1 were transferred into microtiter plate 3, except for wells H1-H12. Similarly, the same volumes were transferred from microtiter plate 2 into plate 3, except for wells A1-A8. […] A 50 μl volume of pure broth was added into each well in lines H1-H12 and A1-A8 which were used to estimate MIC values of pure substances (blank).
(§1) Three-component synergy was assessed by mixing the three components (100 μg of PenG, 50 μg of GarKS and 2.5 μg of MP1) into one well of a microtiter plate, compared with activity of individual antimicrobials on the same plate.

MRSA ATCC 33591-lux = test: AAMP assay and checkerboard synergy; assay type: cell-based, Staphylococcus aureus; conditions: for MIC: Staphylococcus aureus, 24 h, read-out: MIC, single antimicrobial
Experimental: (§2) Antimicrobial activity was measured using the AAMP assay (Wiegand et al., 2008, Nat. Protoc., Vol. 3(2), p 163-175).
(§3) Synergy testing was done with a microtiter plate checkerboard assay as previously described (Orhan et al., 2005, J. Clin. Microbiol., Vol. 43(1), p 140-143). Briefly, equal amounts of antimicrobial A were applied on microtiter plate 1 in wells A1-H1 and then diluted two-fold to wells 2-12. Similarly, equal amounts of antimicrobial B were applied on microtiter plate 2 in wells A1-A12 and diluted two-fold in wells B-H. Volumes of 50 μl of antimicrobial A from each well of microtiter plate 1 were transferred into microtiter plate 3, except for wells H1-H12. Similarly, the same volumes were transferred from microtiter plate 2 into plate 3, except for wells A1-A8. A 100 μl volume of 25 times diluted ON bacterial culture of MRSA was transferred into each well of plate 3. A 50 μl volume of pure broth was added into each well in lines H1-H12 and A1-A8 which were used to estimate MIC values of pure substances (blank).
as §1, with “plate. The fractional inhibition concentration (FIC) which was used to define synergy was calculated as set forth in Example 1.” for “plate.”

MRSA USA-300 = test: AAMP assay and checkerboard synergy; assay type: cell-based, Staphylococcus aureus; conditions: MRSA USA-300; for MIC: Staphylococcus aureus, 24 h, read-out: MIC, single antimicrobial
Experimental: as §2, §3
as §1, with “plate. The fractional inhibition concentration (FIC) which was used to define synergy was calculated as set forth in Example 1.” for “plate.”

MRSA 43484 = test: AAMP assay and checkerboard synergy; assay type: cell-based, Staphylococcus aureus; conditions: MRSA 43484; for MIC: Staphylococcus aureus, 24 h, read-out: MIC, single antimicrobial
Experimental: as §2, §3
as §1, with “plate. The fractional inhibition concentration (FIC) which was used to define synergy was calculated as set forth in Example 1.” for “plate.”

S. aureus LMG3328 = test: AAMP assay (MIC), single components and formulation mixture; assay type: cell-based, Staphylococcus aureus; conditions: Staphylococcus aureus, LMG3328, 24 h; read-out: MIC, single component
Experimental: as §2
as §1, with “plate. The fractional inhibition concentration (FIC) which was used to define synergy was calculated as set forth in Example 1.” for “plate.”

S. aureus LMG3263 = test: as above; assay type: cell-based, Staphylococcus aureus; conditions: Staphylococcus aureus, LMG3263, 24 h; read-out: MIC, single component
Experimental: as §2
as §1, with “plate. The fractional inhibition concentration (FIC) which was used to define synergy was calculated as set forth in Example 1.” for “plate.”

S. aureus LMG3255 = test: as above; assay type: cell-based, Staphylococcus aureus; conditions: Staphylococcus aureus, LMG3255, 24 h; read-out: MIC, single component
Experimental: as §2
as §1, with “plate. The fractional inhibition concentration (FIC) which was used to define synergy was calculated as set forth in Example 1.” for “plate.”

S. aureus LMG3242 = test: as above; assay type: cell-based, Staphylococcus aureus; conditions: Staphylococcus aureus, LMG3242, 24 h; read-out: MIC, single component
Experimental: as §2
as §1, with “plate. The fractional inhibition concentration (FIC) which was used to define synergy was calculated as set forth in Example 1.” for “plate.”

S. aureus LMG3322 = test: as above; assay type: cell-based, Staphylococcus aureus; conditions: Staphylococcus aureus, LMG3322, 24 h; read-out: MIC, single component
Experimental: as §2
as §1, with “plate. The fractional inhibition concentration (FIC) which was used to define synergy was calculated as set forth in Example 1.” for “plate.”

S. aureus LMG3265 = test: as above; assay type: cell-based, Staphylococcus aureus; conditions: Staphylococcus aureus, LMG3265, 24 h; read-out: MIC, single component
Experimental: as §2
as §1, with “plate. The fractional inhibition concentration (FIC) which was used to define synergy was calculated as set forth in Example 1.” for “plate.”

S. aureus LMG3266 = test: as above; assay type: cell-based, Staphylococcus aureus; conditions: Staphylococcus aureus, LMG3266, 24 h; read-out: MIC, single component
Experimental: as §2
as §1, with “plate. The fractional inhibition concentration (FIC) which was used to define synergy was calculated as set forth in Example 1.” for “plate.”

S. aureus LMG3271 = test: as above; assay type: cell-based, Staphylococcus aureus; conditions: Staphylococcus aureus, LMG3271, 24 h; read-out: MIC, single component
Experimental: as §2
as §1, with “plate. The fractional inhibition concentration (FIC) which was used to define synergy was calculated as set forth in Example 1.” for “plate.”

S. aureus LMG3026 = test: as above; assay type: cell-based, Staphylococcus aureus; conditions: Staphylococcus aureus, LMG3026, 24 h; read-out: MIC, single component
Experimental: as §2
as §1, with “plate. The fractional inhibition concentration (FIC) which was used to define synergy was calculated as set forth in Example 1.” for “plate.”

S. aureus LMG3307 = test: as above; assay type: cell-based, Staphylococcus aureus; conditions: Staphylococcus aureus, LMG3307, 24 h; read-out: MIC, single component
Experimental: as §2
as §1, with “plate. The fractional inhibition concentration (FIC) which was used to define synergy was calculated as set forth in Example 1.” for “plate.”

S. aureus LMG3314 = test: as above; assay type: cell-based, Staphylococcus aureus; conditions: Staphylococcus aureus, LMG3314, 24 h; read-out: MIC, single component
Experimental: as §2
as §1, with “plate. The fractional inhibition concentration (FIC) which was used to define synergy was calculated as set forth in Example 1.” for “plate.”

S. aureus LMG3264 = test: as above; assay type: cell-based, Staphylococcus aureus; conditions: Staphylococcus aureus, LMG3264, 24 h; read-out: MIC, single component
Experimental: as §2
as §1, with “plate. The fractional inhibition concentration (FIC) which was used to define synergy was calculated as set forth in Example 1.” for “plate.”

S. aureus LMG3258 = test: as above; assay type: cell-based, Staphylococcus aureus; conditions: Staphylococcus aureus, LMG3258, 24 h; read-out: MIC, single component
Experimental: as §2
as §1, with “plate. The fractional inhibition concentration (FIC) which was used to define synergy was calculated as set forth in Example 1.” for “plate.”

[2] = system: S. pseudintermedius MRSP 45; test: microbe, parasite or virus in culture; assay type: cell-based, Staphylococcus pseudintermedius; conditions: Staphylococcus pseudintermedius, MRSP45; MRSP 45; 24 h; Table 8; read-out: MIC, single component
Experimental: as §2, §3
(§4) Antimicrobial activity was measured using the AAMP assay as described in Example 2.
(§5) Synergy testing was performed as in Example 2.

MRSA ATCC 33591 = test: microbe, parasite or virus in culture; assay type: cell-based, Staphylococcus aureus; conditions: for MIC: Staphylococcus aureus, 24 h, read-out: MIC, single antimicrobial
Experimental: as §2, §3, §4, §5

MIC of MP1 in comb. with the labelled antimicrobial (MRSA ATCC 33591)	MIC of the labelled antimicrobial in comb. with MP1 (MRSA ATCC 33591)	MIC (MRSA ATCC 33591)	Structure (SMILES)	MIC of the antimicrobial in comb. with GarKS ([1]; All three strains)	synergy with GarKS [1]	MIC of the antimicrobial in comb. with GarKS (MRSA ATCC 33591-lux; MRSA ATCC 33591-lux)	MIC of the antimicrobial in comb. with GarKS (MRSA USA-300)	MIC (MRSA USA-300)	MIC of the antimicrobial in comb. with GarKS (MRSA 43484)	MIC (MRSA 43484)	MIC [2]	also measured
			CC1(C)S[C@@H]2[C@H](NC(=O)[C@H](N)c3ccccc3)C(=O)N2[C@H]1C(=O)O [Amp, Ampicillin]	16 µg/mL	moderate synergy	16 µg/mL	16 µg/mL	< 2500 µg/mL	16 µg/mL	< 2500 µg/mL		MIC of the component when combined ([1]; GarKS with Amp or PenG): 16 µg/mL; MIC ([1]; Staphylococcus aureus, 24 h, All three strains, read-out: MIC, single antimicrobial): > 2500 µg/mL; MIC (MRSA ATCC 33591-lux): < 2500 µg/mL
			CC[C@H]1OC(=O)[C@H](C)[C@@H](O[C@H]2C[C@@](C)(OC)[C@@H](O)[C@H](C)O2)[C@H](C)[C@@H](O[C@@H]2O[C@H](C)C[C@H](N(C)C)[C@H]2O)[C@](C)(O)C[C@@H](C)C(=O)[C@H](C)[C@@H](O)[C@]1(C)O [Ery, Erythromycin]	16 to 62 µg/mL	no synergy or only additive effects	62 µg/mL	16 µg/mL	31 µg/mL	32 µg/mL	62 µg/mL	> 250 µg/mL	MIC (S. aureus LMG3328): < 2.5 µg/mL; MIC (S. aureus LMG3263): > 2500 µg/mL; MIC (S. aureus LMG3255): < 2.5 µg/mL; MIC (S. aureus LMG3242): < 2.5 µg/mL; MIC (S. aureus LMG3322): < 2.5 µg/mL; MIC (S. aureus LMG3265): > 2500 µg/mL; MIC (S. aureus LMG3266): > 2500 µg/mL; MIC (S. aureus LMG3271): < 2.5 µg/mL; MIC (S. aureus LMG3026): < 2.5 µg/mL; MIC (S. aureus LMG3307): < 2.5 µg/mL; MIC (S. aureus LMG3314): < 2.5 µg/mL; MIC (S. aureus LMG3264): < 2.5 µg/mL; MIC (S. aureus LMG3258): < 2.5 µg/mL; MIC, single antimicrobial (MRSA ATCC 33591-lux; MRSA ATCC 33591-lux): >250 µg/mL; MIC (MRSA ATCC 33591-lux; MRSA ATCC 33591-lux): > 250 µg/mL
0.08 µg/mL	14 µg/mL	56 µg/mL	CC(C)=CCCC(C)=CCCC(C)=CCO [Farnesol]									
0.15 µg/mL	0.04 µg/mL	0.6 µg/mL	CC(=O)O[C@H]1C[C@@]2(C)[C@@H](C[C@@H](O)[C@H]3[C@@]4(C)CC[C@@H](O)[C@@H](C)[C@@H]4CC[C@@]32C)/C1=C(\CCC=C(C)C)C(=O)O [Fusidic acid]								1.25 µg/mL	
